Source: publication PMC9374667 (Communications Biology, 2022)
“And” between values parts separate entries of the source, which are not always exact repeats. Equal entries are not always repeated.

How the values were obtained:
Type in all cases: cell-based, Murine
[1] = target: T1, IKKε (Mus musculus, UniProt Q9R0T8); test: 3T3-L1 adipocytes transfected with IKKε plasmid (western blotting, cAMP, glycerol, ISO); parameters: endogenous in cells; host or cells: differentiated 3T3-L1 adipocytes; IKKε (western blotting, Figure 8h) / UCP1 (western blotting, Figure 8i) / UCP1 (western blotting, Figure 8j): scale not given here; cAMP levels (Figure 8k) / Glycerol release (Figure 8l): unit not given here
T1 sequence (Q9R0T8 1-717): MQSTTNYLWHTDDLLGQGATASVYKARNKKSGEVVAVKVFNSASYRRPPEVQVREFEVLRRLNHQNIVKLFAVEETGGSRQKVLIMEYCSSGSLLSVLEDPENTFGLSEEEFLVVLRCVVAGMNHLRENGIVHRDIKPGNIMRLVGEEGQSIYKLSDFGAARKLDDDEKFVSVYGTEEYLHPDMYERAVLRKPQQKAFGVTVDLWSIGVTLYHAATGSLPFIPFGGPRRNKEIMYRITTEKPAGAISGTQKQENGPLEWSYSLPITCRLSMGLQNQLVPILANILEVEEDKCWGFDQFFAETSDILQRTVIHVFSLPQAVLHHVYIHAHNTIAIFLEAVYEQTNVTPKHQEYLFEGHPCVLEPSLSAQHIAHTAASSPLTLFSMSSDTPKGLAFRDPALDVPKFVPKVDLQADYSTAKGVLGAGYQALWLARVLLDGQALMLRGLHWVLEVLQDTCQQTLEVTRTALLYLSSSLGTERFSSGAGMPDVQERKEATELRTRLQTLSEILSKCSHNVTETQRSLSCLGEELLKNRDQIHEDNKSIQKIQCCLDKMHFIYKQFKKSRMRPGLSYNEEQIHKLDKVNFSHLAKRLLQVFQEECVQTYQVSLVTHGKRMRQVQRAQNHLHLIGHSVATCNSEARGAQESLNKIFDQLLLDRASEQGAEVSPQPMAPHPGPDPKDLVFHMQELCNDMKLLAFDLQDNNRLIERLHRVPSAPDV
Procedure: (§1) Small interference RNA transfection (siRNA) was performed using 4 μM TBK1 siRNA (siTBK1) or 4 μM […]ε) or corresponding NC siRNA (siNC). The epididymal adipose tissue was dissected, the fresh adipose tissue was weighed and rapidly rinsed with PBS. The adipose tissue was cut and incubated with isoproterenol (10 μM) for 2 h, and homogenized in a cold cleavage buffer to prepare the adipose tissue homogenate. Then the homogenate was centrifuged at 12,000 × g at 4 °C for 15 min, and the supernatant was collected. […] Then the cells were lysed in a petri dish, scraped off, and centrifuged at 12,000 × g at 4 °C for 15 min before the supernatant was collected. […] And concentrations were further standardized according to protein concentration. The adipose tissue or 3T3-L1 adipocytes were homogenized by ultrasound in an ice-cold RIPA lysis buffer containing 1% PMSF and centrifuged at 12,000 × g at 4°C for 15 min to collect the supernatant. The BCA protein assay kit (Beyotime, Shanghai, China) was used to detect the total protein concentration. Proteins (20-30 μg) of the sample were separated by 10% SDS-PAGE gel and transferred onto polyvinylidene difluoride (PVDF) membranes. Then the PVDF membranes were blocked in 5% skim milk powder in TBS containing 1% Tween-20 (TBST) for 2 h at room temperature and washed with TBST for 3 times. […] After washing, the membranes were incubated with horseradish peroxidase-conjugated secondary antibodies (in 5% skim milk powder) for 1 h at room temperature. Finally, the membranes were treated with enhanced chemiluminescence agents (Tanon, Shanghai, China) and the signals were monitored using the Tanon 5200 multi chemiluminescent imaging system (Tanon, Shanghai, China).

[2] = target: T1, IKKε; test: IKKε-knockdown 3T3-L1 adipocytes (siRNA; western blotting, cAMP, glycerol, ISO); parameters: endogenous in cells; host or cells: differentiated 3T3-L1 adipocytes; conditions: ISO +, 10μM BJ -
Procedure: as §1

[3] = tested on: cAMP, glycerol release; test: cAMP levels and glycerol release in TNF-α induced 3T3-L1 adipocytes (isoproterenol)
Procedure: The epididymal adipose tissue was dissected, the fresh adipose tissue was weighed and rapidly rinsed with PBS. The adipose tissue was cut and incubated with isoproterenol (10 μM) for 2 h, and homogenized in a cold cleavage buffer to prepare the adipose tissue homogenate. Then the homogenate was centrifuged at 12,000 × g at 4 °C for 15 min, and the supernatant was collected. […] Then the cells were lysed in a petri dish, scraped off, and centrifuged at 12,000 × g at 4 °C for 15 min before the supernatant was collected. […] And concentrations were further standardized according to protein concentration.

CC(C)NCC(O)c1ccc(O)c(O)c1 (stereo not shown) [ISO]
Glycerol release (Figure 8l) ([1]; ISO): 108.886 and 102.136 and 112.261 | UCP1 (western blotting, Figure 8j) ([1]; ISO): 0.8258 and 0.5499 and 0.929 | cAMP levels (Figure 8k) ([1]; ISO): 0.2652 and 0.258 and 0.2726 | Glycerol release (Figure 8l) ([1]; ISO+IKKε): 84.4172 and 90.3234 and 97.917 | UCP1 (western blotting, Figure 8j) ([1]; ISO+IKKε): 0.3959 and 0.3641 and 0.3989 | cAMP levels (Figure 8k) ([1]; ISO+IKKε): 0.1824 and 0.1892 and 0.1882 | Glycerol (Figure 9l) ([2]; siIKKϵ +): 169.673 µmol/L and 171.907 µmol/L and 177.534 µmol/L | UCP1 (western blotting, Figure 9J) ([2]; siIKKϵ +): 0.6893 and 0.7105 and 0.7747 | cAMP (Figure 9k) ([2]; siIKKϵ +): 0.3589 pmol/mg protein and 0.3755 pmol/mg protein and 0.3876 pmol/mg protein and 0.3693 pmol/mg protein and 0.3629 pmol/mg protein and 0.3678 pmol/mg protein | Glycerol (Figure 9l) ([2]; siIKKϵ -): 104.409 µmol/L and 108.54 µmol/L and 120.987 µmol/L | UCP1 (western blotting, Figure 9J) ([2]; siIKKϵ -): 0.5841 and 0.5565 and 0.4767 | cAMP (Figure 9k) ([2]; siIKKϵ -): 0.2714 pmol/mg protein and 0.2836 pmol/mg protein and 0.2536 pmol/mg protein and 0.2485 pmol/mg protein and 0.2952 pmol/mg protein | Glycerol release in differentiated 3T3-L1 adipocytes induced by TNF-α ([3]; ISO): 113.104 µmol/L and 118.167 µmol/L and 114.792 µmol/L | cAMP levels in differentiated 3T3-L1 adipocytes induced by TNF-α ([3]; ISO): 0.361 pmol/mg protein and 0.3597 pmol/mg protein and 0.3681 pmol/mg protein | Glycerol release in differentiated 3T3-L1 adipocytes induced by TNF-α ([3]; ISO+TNF-α(50ng/ml)): 103.823 µmol/L and 102.136 µmol/L and 105.511 µmol/L | cAMP levels in differentiated 3T3-L1 adipocytes induced by TNF-α ([3]; ISO+TNF-α(50ng/ml)): 0.2016 pmol/mg protein and 0.1968 pmol/mg protein and 0.1945 pmol/mg protein
